Test results published in PubChem BioAssay AID248 (DTP/NCI, 2004).
Values joined by “and” are separate entries in the source; they are usually repeats but may differ in a detail not shown here. Identical values can stand only once. Toxic doses and inconclusive results are not listed.

System: L1210 leukemia ip in BDF1 mice, survival T/C
Experiment: NCI In Vivo Anticancer Drug Screen. Data for tumor model L1210 Leukemia (intraperitoneal) in B6D2F1 (BDF1) mice
Details: endpoint: mean survival time, higher = longer survival
Outline: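 Tumor was transplanted into mice, which were then dosed with test compound or vehicle alone. Survival was recorded for each group, and the treated figure was expressed relative to the control figure.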

SMILES: O=c1[nH]c(=O)n(C2CC(O)C(CO)O2)cc1C(F)(F)F (stereo unspecified)
- T/C (dose: 0.16 mg/kg/injection, schedule: Q#B X045 (ip), vehicle: saline): 109 % of control
- T/C (dose: 0.33 mg/kg/injection, schedule: Q#B X045 (ip), vehicle: saline): 119 % of control
- T/C (dose: 0.56 mg/kg/injection, schedule: Q01DX Z (ip), vehicle: saline): 112 % of control
- T/C (dose: 0.66 mg/kg/injection, schedule: Q#B X045 (ip), vehicle: saline): 122 % of control
- T/C (dose: 1.12 mg/kg/injection, schedule: Q01DX Z (ip), vehicle: saline): 106 % of control
- T/C (dose: 1.5 mg/kg/injection, schedule: Q01DX Z (sc), vehicle: saline): 112 % of control
- T/C (dose: 2.25 mg/kg/injection, schedule: Q01DX Z (ip), vehicle: saline): 118 % of control
- T/C (dose: 3.0 mg/kg/injection, schedule: Q01DX Z (sc), vehicle: saline): 114 % of control
- T/C (dose: 3.12 mg/kg/injection, schedule: Q01DX Z (im), vehicle: saline): 104 % of control
- T/C (dose: 4.5 mg/kg/injection, schedule: Q01DX Z (ip), vehicle: saline): 114 % of control
- T/C (dose: 6.0 mg/kg/injection, schedule: Q01DX Z (sc), vehicle: saline): 118 % of control
- T/C (dose: 6.25 mg/kg/injection, schedule: Q01DX006 (iv), vehicle: saline): 121 % of control
- T/C (dose: 6.25 mg/kg/injection, schedule: Q01DX015 (ip), vehicle: saline): 120 % of control
- T/C (dose: 9.0 mg/kg/injection, schedule: Q01DX Z (ip), vehicle: saline): 153 % of control
- T/C (dose: 12.0 mg/kg/injection, schedule: Q01DX Z (sc), vehicle: saline): 118 % of control
- T/C (dose: 12.5 mg/kg/injection, schedule: Q01DX006 (iv), vehicle: saline): 115 % of control
- T/C (dose: 12.5 mg/kg/injection, schedule: Q01DX Z (oral), vehicle: saline): 120 % of control
- T/C (dose: 18.0 mg/kg/injection, schedule: Q01DX Z (ip), vehicle: saline): 150 % of control
- T/C (dose: 18.75 mg/kg/injection, schedule: Q#A X034 (ip), vehicle: water): 122 % of control
- T/C (dose: 20.0 mg/kg/injection, schedule: Q01DX009 (oral), vehicle: saline): 116 % of control
- T/C (dose: 20.0 mg/kg/injection, schedule: Q01DX Z (ip), vehicle: saline): 119 % of control
- T/C (dose: 25.0 mg/kg/injection, schedule: Q01DX015 (ip), vehicle: saline): 152 % of control
- T/C (dose: 25.0 mg/kg/injection, schedule: Q01DX Z (ip), vehicle: saline): 160 % of control
- T/C (dose: 25.0 mg/kg/injection, schedule: Q01DX Z (oral), vehicle: saline): 120 % of control
- T/C (dose: 38.0 mg/kg/injection, schedule: Q01DX Z (ip), vehicle: water): 117 % of control
- T/C (dose: 40.0 mg/kg/injection, schedule: Q01DX009 (oral), vehicle: saline): 121 % of control
- T/C (dose: 45.0 mg/kg/injection, schedule: Q01DX015 (oral), vehicle: saline): 122 % of control
- T/C (dose: 50.0 mg/kg/injection, schedule: Q01DX Z (ip), vehicle: saline): 154 % of control
- T/C (dose: 50.0 mg/kg/injection, schedule: Q01DX Z (sc), vehicle: saline): 156 % of control
- T/C (dose: 64.0 mg/kg/injection, schedule: Q01DX009 (ip), vehicle: water): 156 % of control
- T/C (dose: 65.0 mg/kg/injection, schedule: Q01DX015 (oral), vehicle: saline): 104 % of control
- T/C (dose: 65.0 mg/kg/injection, schedule: Q01DX Z (ip), vehicle: water): 157 % of control
- T/C (dose: 100.0 mg/kg/injection, schedule: Q01DX001 (ip), vehicle: saline): 106 % of control and 107 % of control
- T/C (dose: 100.0 mg/kg/injection, schedule: Q01DX015 (oral), vehicle: saline): 120 % of control
- T/C (dose: 100.0 mg/kg/injection, schedule: Q01DX Z (im), vehicle: saline): 154 % of control
- T/C (dose: 100.0 mg/kg/injection, schedule: Q## X001 (ip), vehicle: saline): 103 % of control
- T/C (dose: 107.0 mg/kg/injection, schedule: Q01DX Z (ip), vehicle: water): 154 % of control
- T/C (dose: 128.0 mg/kg/injection, schedule: Q01DX001 (oral), vehicle: saline): 112 % of control
- T/C (dose: 128.0 mg/kg/injection, schedule: Q01DX009 (ip), vehicle: water): 151 % of control
- T/C (dose: 128.0 mg/kg/injection, schedule: Q## X003 (oral), vehicle: saline): 119 % of control
- T/C (dose: 128.0 mg/kg/injection, schedule: Q## X024 (oral), vehicle: saline): 115 % of control
- T/C (dose: 150.0 mg/kg/injection, schedule: Q01DX Z (ip), vehicle: saline): 159 % of control
- T/C (dose: 150.0 mg/kg/injection, schedule: Q04DX005 (ip), vehicle: water): 118 % of control
- T/C (dose: 150.0 mg/kg/injection, schedule: Q#A X034 (ip), vehicle: water): 124 % of control
- T/C (dose: 180.0 mg/kg/injection, schedule: Q01DX Z (ip), vehicle: water): 122 % of control
- T/C (dose: 200.0 mg/kg/injection, schedule: Q01DX001 (ip), vehicle: saline): 109 % of control
- T/C (dose: 200.0 mg/kg/injection, schedule: Q01DX Z (sc), vehicle: saline): 160 % of control
- T/C (dose: 200.0 mg/kg/injection, schedule: Q## X001 (ip), vehicle: saline): 111 % of control
- T/C (dose: 250.0 mg/kg/injection, schedule: Q01DX001 (ip), vehicle: saline): 112 % of control
- T/C (dose: 250.0 mg/kg/injection, schedule: Q01DX Z (ip), vehicle: saline): 157 % of control
- T/C (dose: 251.0 mg/kg/injection, schedule: Q01DX Z (ip), vehicle: saline): 108 % of control
- T/C (dose: 256.0 mg/kg/injection, schedule: Q01DX001 (oral), vehicle: saline): 112 % of control
- T/C (dose: 256.0 mg/kg/injection, schedule: Q01DX009 (ip), vehicle: saline): 150 % of control
- T/C (dose: 256.0 mg/kg/injection, schedule: Q01DX009 (oral), vehicle: saline): 157 % of control
- T/C (dose: 256.0 mg/kg/injection, schedule: Q03HX016 (ip), vehicle: water): 153 % of control
- T/C (dose: 256.0 mg/kg/injection, schedule: Q04DX003 (ip), vehicle: water): 116 % of control
- T/C (dose: 300.0 mg/kg/injection, schedule: Q01DX001 (ip), vehicle: water): 106 % of control
- T/C (dose: 300.0 mg/kg/injection, schedule: Q01DX017 (ip), vehicle: water): 119 % of control
- T/C (dose: 300.0 mg/kg/injection, schedule: Q01DX Z (ip), vehicle: water): 102 % of control
- T/C (dose: 300.0 mg/kg/injection, schedule: Q01DX Z (oral), vehicle: saline): 116 % of control
- T/C (dose: 300.0 mg/kg/injection, schedule: Q03DX Z (ip), vehicle: saline): 118 % of control
- T/C (dose: 300.0 mg/kg/injection, schedule: Q04DX005 (ip), vehicle: water): 123 % of control
- T/C (dose: 320.0 mg/kg/injection, schedule: Q01DX015 (ip), vehicle: saline): 98 % of control
- T/C (dose: 350.0 mg/kg/injection, schedule: Q01DX Z (ip), vehicle: saline): 111 % of control
- T/C (dose: 351.0 mg/kg/injection, schedule: Q01DX Z (ip), vehicle: saline): 114 % of control
- T/C (dose: 400.0 mg/kg/injection, schedule: Q01DX001 (ip), vehicle: saline): 98 % of control and 113 % of control
- T/C (dose: 400.0 mg/kg/injection, schedule: Q01DX Z (im), vehicle: saline): 159 % of control
- T/C (dose: 400.0 mg/kg/injection, schedule: Q## X001 (ip), vehicle: saline): 116 % of control
- T/C (dose: 480.0 mg/kg/injection, schedule: Q01DX015 (ip), vehicle: saline): 98 % of control
- T/C (dose: 500.0 mg/kg/injection, schedule: Q01DX001 (ip), vehicle: saline): 112 % of control
- T/C (dose: 512.0 mg/kg/injection, schedule: Q01DX001 (oral), vehicle: saline): 112 % of control
- T/C (dose: 512.0 mg/kg/injection, schedule: Q01DX009 (ip), vehicle: saline): 117 % of control
- T/C (dose: 512.0 mg/kg/injection, schedule: Q04DX003 (ip), vehicle: water): 120 % of control
- T/C (dose: 512.0 mg/kg/injection, schedule: Q## X008 (oral), vehicle: saline): 121 % of control
- T/C (dose: 600.0 mg/kg/injection, schedule: Q01DX001 (ip), vehicle: water): 107 % of control
- T/C (dose: 600.0 mg/kg/injection, schedule: Q01DX Z (oral), vehicle: saline): 106 % of control
- T/C (dose: 600.0 mg/kg/injection, schedule: Q02DX009 (ip), vehicle: water): 159 % of control
- T/C (dose: 600.0 mg/kg/injection, schedule: Q04DX005 (ip), vehicle: water): 119 % of control
- T/C (dose: 800.0 mg/kg/injection, schedule: Q01DX001 (ip), vehicle: saline): 107 % of control and 116 % of control
- T/C (dose: 800.0 mg/kg/injection, schedule: Q01DX006 (iv), vehicle: saline): 154 % of control
- T/C (dose: 800.0 mg/kg/injection, schedule: Q01DX Z (ip), vehicle: saline): 124 % of control
- T/C (dose: 800.0 mg/kg/injection, schedule: Q01DX Z (oral), vehicle: saline): 110 % of control
- T/C (dose: 800.0 mg/kg/injection, schedule: Q## X001 (ip), vehicle: saline): 121 % of control
- T/C (dose: 1000.0 mg/kg/injection, schedule: Q01DX001 (ip), vehicle: saline): 123 % of control
- T/C (dose: 1024.0 mg/kg/injection, schedule: Q01DX001 (oral), vehicle: saline): 121 % of control
- T/C (dose: 1024.0 mg/kg/injection, schedule: Q01DX009 (oral), vehicle: saline): 101 % of control
- T/C (dose: 1024.0 mg/kg/injection, schedule: Q## X003 (oral), vehicle: saline): 156 % of control
- T/C (dose: 1200.0 mg/kg/injection, schedule: Q01DX001 (ip), vehicle: water): 104 % of control
- T/C (dose: 1200.0 mg/kg/injection, schedule: Q01DX Z (im), vehicle: saline): 121 % of control
- T/C (dose: 1200.0 mg/kg/injection, schedule: Q01DX Z (sc), vehicle: saline): 115 % of control
- T/C (dose: 1200.0 mg/kg/injection, schedule: Q04DX005 (ip), vehicle: water): 119 % of control
- T/C (dose: 1600.0 mg/kg/injection, schedule: Q01DX Z (im), vehicle: saline): 113 % of control
- T/C (dose: 1600.0 mg/kg/injection, schedule: Q01DX Z (oral), vehicle: saline): 97 % of control
- T/C (dose: 1600.0 mg/kg/injection, schedule: Q01DX Z (sc), vehicle: saline): 107 % of control
- T/C (dose: 2400.0 mg/kg/injection, schedule: Q01DX001 (ip), vehicle: water): 104 % of control
- T/C (dose: 4096.0 mg/kg/injection, schedule: Q## X008 (oral), vehicle: saline): 151 % of control
